One assay concerns caspase-11. As to the kind of experiment: Caspase enzyme assay (residual caspase-11 activity). It is filed as biochemical, mouse.
Another assay deals with MT1-MMP. More on the design: method as in 2 sources, ref [19] = [19]; PMID 28394608; doi:10.1021/acs.jmedchem.7b00018; 19. Bhowmick M. Tokmina-Roszyk D. Onwuha-Ekpete L. Harmon K. Robichaud T. Fuerst R. Stawikowska R. Steffensen B. Roush W.R. Wong H. Second Generation Triple-Helical Peptide Transition State Analog Mat ||| ref [15],[19] = [15]; PMID 17672455; doi:10.1021/ja0715849; 15. Lauer-Fields J.L. Brew K. Whitehead J.K. Li S. Hammer R.P. Fields G.B. Triple-helical transition-state analogs: A new class of selective matrix metalloproteinase inhibitors J. Am. Chem. Soc. 2007 || [19]; PMID 28394608; doi:10.1021/acs.jmedchem.7b00018; 19. Bhowmick M. Tokmina-Roszyk D. Onwuha-Ekpete L. Harmon K. Robichaud T. Fuerst R. Stawikowska R. Steffensen B. Roush W.R. Wong H. Second Generation Triple-Helical Peptide Transition State Analog Mat. The settings on record: no or weak inhibition of MT1-MMP; ref [15],[19]; cited from earlier work.

A further assay concerns the target T1, MMP-8 (Homo sapiens, UniProt P22894).
T1 construct: purchased R&D Systems
More on the design: method as in 2 sources, ref [19] = [19]; PMID 28394608; doi:10.1021/acs.jmedchem.7b00018; 19. Bhowmick M. Tokmina-Roszyk D. Onwuha-Ekpete L. Harmon K. Robichaud T. Fuerst R. Stawikowska R. Steffensen B. Roush W.R. Wong H. Second Generation Triple-Helical Peptide Transition State Analog Mat ||| ref [15],[19] = [15]; PMID 17672455; doi:10.1021/ja0715849; 15. Lauer-Fields J.L. Brew K. Whitehead J.K. Li S. Hammer R.P. Fields G.B. Triple-helical transition-state analogs: A new class of selective matrix metalloproteinase inhibitors J. Am. Chem. Soc. 2007 || [19]; PMID 28394608; doi:10.1021/acs.jmedchem.7b00018; 19. Bhowmick M. Tokmina-Roszyk D. Onwuha-Ekpete L. Harmon K. Robichaud T. Fuerst R. Stawikowska R. Steffensen B. Roush W.R. Wong H. Second Generation Triple-Helical Peptide Transition State Analog Mat. The settings on record: no or weak inhibition of MMP-8; ref [15],[19]; cited from earlier work.

The target of another assay is MMP-1. More on the design: method as in 2 sources, ref [19] = [19]; PMID 28394608; doi:10.1021/acs.jmedchem.7b00018; 19. Bhowmick M. Tokmina-Roszyk D. Onwuha-Ekpete L. Harmon K. Robichaud T. Fuerst R. Stawikowska R. Steffensen B. Roush W.R. Wong H. Second Generation Triple-Helical Peptide Transition State Analog Mat ||| ref [15],[19] = [15]; PMID 17672455; doi:10.1021/ja0715849; 15. Lauer-Fields J.L. Brew K. Whitehead J.K. Li S. Hammer R.P. Fields G.B. Triple-helical transition-state analogs: A new class of selective matrix metalloproteinase inhibitors J. Am. Chem. Soc. 2007 || [19]; PMID 28394608; doi:10.1021/acs.jmedchem.7b00018; 19. Bhowmick M. Tokmina-Roszyk D. Onwuha-Ekpete L. Harmon K. Robichaud T. Fuerst R. Stawikowska R. Steffensen B. Roush W.R. Wong H. Second Generation Triple-Helical Peptide Transition State Analog Mat. Conditions: no or weak inhibition of MMP-1; ref [15],[19]; cited from earlier work.

For the next assay, the target named is MMP-3. Also noted: method as in 2 sources, ref [19] = [19]; PMID 28394608; doi:10.1021/acs.jmedchem.7b00018; 19. Bhowmick M. Tokmina-Roszyk D. Onwuha-Ekpete L. Harmon K. Robichaud T. Fuerst R. Stawikowska R. Steffensen B. Roush W.R. Wong H. Second Generation Triple-Helical Peptide Transition State Analog Mat ||| ref [15],[19] = [15]; PMID 17672455; doi:10.1021/ja0715849; 15. Lauer-Fields J.L. Brew K. Whitehead J.K. Li S. Hammer R.P. Fields G.B. Triple-helical transition-state analogs: A new class of selective matrix metalloproteinase inhibitors J. Am. Chem. Soc. 2007 || [19]; PMID 28394608; doi:10.1021/acs.jmedchem.7b00018; 19. Bhowmick M. Tokmina-Roszyk D. Onwuha-Ekpete L. Harmon K. Robichaud T. Fuerst R. Stawikowska R. Steffensen B. Roush W.R. Wong H. Second Generation Triple-Helical Peptide Transition State Analog Mat. Conditions: no or weak inhibition of MMP-3; ref [15],[19]; cited from earlier work.

Another assay concerns the target T2, MMP-2 (Homo sapiens, UniProt P08253).
T2 construct: Recombinant MMP-2 and MMP-9 catalytic domain were purchased from Sigma-Aldrich; purchased Sigma-Aldrich
T2 sequence (P08253 110-660): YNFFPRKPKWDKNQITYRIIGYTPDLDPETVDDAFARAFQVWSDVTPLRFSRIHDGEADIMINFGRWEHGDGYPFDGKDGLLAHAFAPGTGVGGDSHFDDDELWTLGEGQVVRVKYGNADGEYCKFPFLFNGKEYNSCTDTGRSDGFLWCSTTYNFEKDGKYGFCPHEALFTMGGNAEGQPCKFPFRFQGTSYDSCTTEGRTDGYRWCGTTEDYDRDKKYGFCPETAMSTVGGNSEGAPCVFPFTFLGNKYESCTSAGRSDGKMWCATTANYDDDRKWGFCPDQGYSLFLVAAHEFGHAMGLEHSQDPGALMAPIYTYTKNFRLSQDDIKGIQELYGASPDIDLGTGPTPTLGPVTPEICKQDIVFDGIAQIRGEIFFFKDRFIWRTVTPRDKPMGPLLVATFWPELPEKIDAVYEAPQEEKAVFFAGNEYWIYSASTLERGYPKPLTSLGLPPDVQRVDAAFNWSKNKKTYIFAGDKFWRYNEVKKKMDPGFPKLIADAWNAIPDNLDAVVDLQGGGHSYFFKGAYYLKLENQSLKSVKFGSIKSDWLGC
Conditions: 37 °C; ref [15],[19]; cited from earlier work.

A further assay concerns the target T3, MMP-9 (Homo sapiens, UniProt P14780).
T3 construct: Recombinant MMP-2 and MMP-9 catalytic domain were purchased from Sigma-Aldrich; purchased Sigma-Aldrich
The settings on record: 37 °C; ref [15],[19]; cited from earlier work.

A further assay addresses MMP-13 (Homo sapiens, UniProt P45452). Conditions: no or weak inhibition of MMP-13; ref [15],[19]; cited from earlier work.
For assay [1] the following is noted: ref [19]; cited from earlier work.

T3 sequence (P14780 107-444 limits assumed, species assumed): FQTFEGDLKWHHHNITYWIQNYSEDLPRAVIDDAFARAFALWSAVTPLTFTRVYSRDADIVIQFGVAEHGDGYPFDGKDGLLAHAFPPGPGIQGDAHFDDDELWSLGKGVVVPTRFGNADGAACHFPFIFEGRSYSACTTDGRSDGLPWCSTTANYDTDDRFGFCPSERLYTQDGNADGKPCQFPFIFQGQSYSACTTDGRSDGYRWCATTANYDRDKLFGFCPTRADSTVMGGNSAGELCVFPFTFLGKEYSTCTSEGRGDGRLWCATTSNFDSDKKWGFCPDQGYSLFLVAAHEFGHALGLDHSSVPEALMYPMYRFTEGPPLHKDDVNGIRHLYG
T1 sequence (P22894 101-467): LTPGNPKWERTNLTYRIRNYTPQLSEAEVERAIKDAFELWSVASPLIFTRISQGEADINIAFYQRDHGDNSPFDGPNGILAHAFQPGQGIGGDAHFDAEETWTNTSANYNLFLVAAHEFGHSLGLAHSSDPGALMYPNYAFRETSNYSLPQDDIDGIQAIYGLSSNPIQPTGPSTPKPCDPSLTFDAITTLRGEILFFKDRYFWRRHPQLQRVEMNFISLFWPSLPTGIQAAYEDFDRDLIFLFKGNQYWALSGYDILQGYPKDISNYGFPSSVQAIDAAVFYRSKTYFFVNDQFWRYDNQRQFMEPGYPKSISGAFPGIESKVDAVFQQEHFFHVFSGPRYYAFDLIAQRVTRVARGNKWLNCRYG

For “(Gly-Pro-Hyp)4-Gly-mep-Flp-Gly-Pro-Pro-GlyΨ{PO2H-CH2}Val-Val-Gly-Glu-Gln-Gly-Glu-Gln-Gly-Pro-Pro-Gly-mep-Flp-(Gly-Pro-Hyp)4-NH2”, the “inhibition of caspase-11 activity at early time points” value in the assay on caspase-11 (5 μM inhibitor, 2 h inhibitor pre-incubation (Figure 2), stated to be similar to no pre-incubation) was “no inhibition to occur at early time points”; in the assay on caspase-11 (no inhibitor pre-incubation time, data not shown), “no inhibition to occur at early time points”. Moreover, the “change in extent of caspase-11 inhibition over time” value in the assay on caspase-11 (5 μM inhibitor, 2 h pre-incubation, 1 h monitoring, data not shown) is “did not increase after 1 h”. The inhibition constant (Ki) (in general, the equilibrium dissociation constant of an inhibitor or competing ligand from its target) at MT1-MMP is 10 to 50 µM; with MMP-8, 10 to 50 µM; at MMP-1, 10 to 50 µM; at MMP-3, 10 to 50 µM; with MMP-2 it was 0.00224 µM; in the assay with MMP-9 it was 0.00098 µM. For the same substance, the Ki with MMP-13 is 10 to 50 µM. Further, the “efficacy in animal model of multiple sclerosis” value in assay [1] is “efficacious in an animal model of multiple sclerosis”.
For the substance “Ac-LEVD-aldehyde (SMILES CC(=O)N[C@@H](CC(C)C)C(=O)N[C@@H](CCC(=O)O)C(=O)N[C@H](C(=O)N[C@H](C=O)CC(=O)O)C(C)C) [reference compound]”, in the assay with caspase-11 (5 μM inhibitor incubated with enzyme 2 h prior to substrate, 3 U/μL (1.08 μM) caspase-11, 250 μM acetyl-Trp-Glu-His-Asp-pNA, pH 6.5, 37 °C, absorbance 405 nm, result in words (up to 15 min)), the “inhibition of caspase-11 activity” value is “completely inhibit enzymatic activity”.

The record behind these values is paper PMC6930605, “Matrix Metalloproteinase Triple-Helical Peptide Inhibitors: Potential Cross-Reactivity with Caspase-11” (Molecules, 2019).
